Experimental data from patent US20210085640A1, “ACYLATED CATECHIN POLYPHENOLS AND METHODS OF THEIR USE FOR THE TREATMENT OF CANCER” (Flagship Pioneering Innovations V, Inc., priority 2018, published 2021).

Experiments:
Assay type in all cases: cell-based
[1] = test system: T24 bladder cancer cells; test: Cancer cell survival (CellTiter-Glo), T24; conditions: Homo sapiens; for viability at 0.101 µM: T-24, 101 nM; for viability at 0.101 µM / viability at 0.318 µM / viability at 1 µM / viability at 3 µM / viability at 10 µM / viability at 32 µM / viability at 100 µM / viability at 316 µM / viability at 1000 µM: 72 h, read-out: Cell survival at given concentration; for viability at 0.318 µM: T-24, 318 nM; for viability at 1 µM: T-24, 1 μM; for viability at 3 µM: T-24, 3 μM; for viability at 10 µM: T-24, 10 μM; for viability at 32 µM: T-24, 32 μM; for viability at 100 µM: T-24, 100 μM; for viability at 316 µM: T-24, 316 μM; for viability at 1000 µM: T-24, 1000 μM; for IC50: T-24, 72 h, Table 3.1, read-out: 1050
Outline: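 Viability by CellTiter-Glo after 72 h compound treatment of T24 bladder cancer cells (4×10^3/well, plated the night before), nine concentration levels in triplicate. Percent survival normalised to untreated cells minus medium background, from which IC50 was determined.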

[2] = test system: Daudi lymphoma cancer cells; test: Cancer cell survival (CellTiter-Glo), Daudi; conditions: Homo sapiens, 72 h; for viability at 0.101 µM: 101 nM; for viability at 0.101 µM / viability at 0.318 µM / viability at 1 µM / viability at 3 µM / viability at 10 µM / viability at 32 µM / viability at 100 µM / viability at 316 µM / viability at 1000 µM: read-out: Cell survival at given concentration; for viability at 0.318 µM: 318 nM; for IC50: Table 4.1
Outline: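 Daudi cells (4×10^3/well) were exposed for 72 h at 37 °C to nine concentrations of compound, added as 10× solutions spanning 1 μM–10 mM (fatty acids) or 100 nM–1 mM (others). CellTiter-Glo luminescence gave % survival versus untreated, medium-blank corrected; IC50 derived.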

[3] = test system: MCF7 breast cancer cells; test: Cancer cell survival (CellTiter-Glo), MCF7; conditions: Homo sapiens, 72 h; for viability at 0.101 µM: 101 nM; for viability at 0.101 µM / viability at 0.318 µM / viability at 1 µM / viability at 3 µM / viability at 10 µM / viability at 32 µM / viability at 100 µM / viability at 316 µM / viability at 1000 µM: read-out: Cell survival at given concentration; for viability at 0.318 µM: 318 nM; for IC50: Table 5.1
Outline: (§1)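 Following overnight plating of 4×10^3 cells per well, triplicate wells received compound at nine concentrations (10× dosing stocks: fatty acids 1 μM-10 mM, all others 100 nM-1 mM). Incubation lasted 72 h at 37 C under 5% CO2. CellTiter-Glo luminescence then gave percent survival and IC50.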

[4] = test system: HCT 116 colorectal cancer cells; test: Cancer cell survival (CellTiter-Glo), HCT 116; conditions: Homo sapiens, HCT 116 cells, 72 h; for viability at 0.101 µM: 101 nM; for viability at 0.101 µM / viability at 0.318 µM / viability at 1 µM / viability at 3 µM / viability at 10 µM / viability at 32 µM / viability at 100 µM / viability at 316 µM / viability at 1000 µM: read-out: Cell survival at given concentration; for viability at 0.318 µM: 318 nM; for IC50: Table 6.1
Outline: as §1

[5] = test system: A549 lung cancer cells; test: Cancer cell survival (CellTiter-Glo), A549; conditions: Homo sapiens, 72 h; for viability at 0.101 µM: 101 nM; for viability at 0.101 µM / viability at 0.318 µM / viability at 1 µM / viability at 3 µM / viability at 10 µM / viability at 32 µM / viability at 100 µM / viability at 316 µM / viability at 1000 µM: read-out: Cell survival at given concentration; for viability at 0.318 µM: 318 nM; for IC50: Table 7.1
Outline: as §1

[6] = test system: PC-3 prostate cancer cells; test: Cancer cell survival (CellTiter-Glo), PC-3; conditions: Homo sapiens, PC-3 cells, 72 h; for viability at 0.101 µM: 101 nM; for viability at 0.101 µM / viability at 0.318 µM / viability at 1 µM / viability at 3 µM / viability at 10 µM / viability at 32 µM / viability at 100 µM / viability at 316 µM / viability at 1000 µM: read-out: Cell survival at given concentration; for viability at 0.318 µM: 318 nM
Outline: as §1

[7] = test system: A-431 skin cancer cells; test: Cancer cell survival (CellTiter-Glo), A-431; conditions: Homo sapiens, A-431 cells, 72 h; for viability at 0.101 µM: 101 nM; for viability at 0.101 µM / viability at 0.318 µM / viability at 1 µM / viability at 3 µM / viability at 10 µM / viability at 32 µM / viability at 100 µM / viability at 316 µM / viability at 1000 µM: read-out: Cell survival at given concentration; for viability at 0.318 µM: 318 nM; for IC50: Table 9.1
Outline: as §1

[8] = test system: AGS stomach cancer cells; test: Cancer cell survival (CellTiter-Glo), AGS; conditions: for viability at 0.101 µM / viability at 0.318 µM / viability at 1 µM / viability at 3 µM / viability at 10 µM / viability at 32 µM / viability at 100 µM / viability at 316 µM / viability at 1000 µM: 72 h; for viability at 0.101 µM: 101 nM; for viability at 0.101 µM / viability at 0.318 µM / viability at 316 µM / viability at 1000 µM: read-out: Cell survival at given concentration; for viability at 0.318 µM: 318 nM; for viability at 1 µM / viability at 3 µM / viability at 10 µM / viability at 32 µM / viability at 100 µM: Table 10.1, read-out: Cell survival at given concentration
Outline: as §1

## O=c1c(O)c(-c2cc(O)c(O)c(O)c2)oc2cc(O)cc(O)c12 [myricetin]
[1]
  viability at 0.101 µM: 101%
  viability at 0.318 µM: 98%
  viability at 1 µM: 106%
  viability at 3 µM: 102%
  viability at 10 µM: 96%
  viability at 32 µM: 9%
  viability at 100 µM: 0%
  viability at 316 µM: 0%
  viability at 1000 µM: 0%
  IC50: 19.1 µM
[2]
  viability at 0.101 µM: 104%
  viability at 0.318 µM: 103%
  viability at 1 µM: 104%
  viability at 3 µM: 104%
  viability at 10 µM: 105%
  viability at 32 µM: 25%
  viability at 100 µM: 0%
  viability at 316 µM: 0%
  viability at 1000 µM: 0%
  IC50: 28.1 µM
[3]
  viability at 0.101 µM: 105%
  viability at 0.318 µM: 95%
  viability at 1 µM: 104%
  viability at 3 µM: 100%
  viability at 10 µM: 99%
  viability at 32 µM: 103%
  viability at 100 µM: 94%
  viability at 316 µM: 99%
  viability at 1000 µM: 87%
  IC50: > 1000 µM
[4]
  viability at 0.101 µM: 101%
  viability at 0.318 µM: 104%
  viability at 1 µM: 107%
  viability at 3 µM: 105%
  viability at 10 µM: 102%
  viability at 32 µM: 31%
  viability at 100 µM: 0%
  viability at 316 µM: 0%
  viability at 1000 µM: 0%
  IC50: 26.5 µM
[5]
  viability at 0.101 µM: 100%
  viability at 0.318 µM: 100%
  viability at 1 µM: 99%
  viability at 3 µM: 104%
  viability at 10 µM: 101%
  viability at 32 µM: 99%
  viability at 100 µM: 99%
  viability at 316 µM: 98%
  viability at 1000 µM: 79%
  IC50: > 1000 µM
[6]
  viability at 0.101 µM: 103%
  viability at 0.318 µM: 99%
  viability at 1 µM: 103%
  viability at 3 µM: 100%
  viability at 10 µM: 105%
  viability at 32 µM: 101%
  viability at 100 µM: 102%
  viability at 316 µM: 101%
  viability at 1000 µM: 88%
[7]
  viability at 0.101 µM: 102%
  viability at 0.318 µM: 100%
  viability at 1 µM: 102%
  viability at 3 µM: 102%
  viability at 10 µM: 100%
  viability at 32 µM: 96%
  viability at 100 µM: 87%
  viability at 316 µM: 87%
  viability at 1000 µM: 78%
  IC50: > 1000 µM
[8]
  viability at 0.101 µM: 107%
  viability at 0.318 µM: 103%
  viability at 1 µM: 110%
  viability at 3 µM: 103%
  viability at 10 µM: 109%
  viability at 32 µM: 111%
  viability at 100 µM: 108%
  viability at 316 µM: 107%
  viability at 1000 µM: 81%

## O=c1cc(-c2ccc(O)c(O)c2)oc2cc(O)cc(O)c12 [luteolin]
[1]
  viability at 0.101 µM: 99%
  viability at 0.318 µM: 102%
  viability at 1 µM: 103%
  viability at 3 µM: 94%
  viability at 10 µM: 85%
  viability at 32 µM: 35%
  viability at 100 µM: 9%
  viability at 316 µM: 8%
  viability at 1000 µM: 6%
  IC50: 22.8 µM
[2]
  viability at 0.101 µM: 100%
  viability at 0.318 µM: 102%
  viability at 1 µM: 103%
  viability at 3 µM: 106%
  viability at 10 µM: 85%
  viability at 32 µM: 33%
  viability at 100 µM: 10%
  viability at 316 µM: 6%
  viability at 1000 µM: 16%
  IC50: 21.6 µM
[3]
  viability at 0.101 µM: 96%
  viability at 0.318 µM: 99%
  viability at 1 µM: 103%
  viability at 3 µM: 104%
  viability at 10 µM: 108%
  viability at 32 µM: 60%
  viability at 100 µM: 31%
  viability at 316 µM: 26%
  viability at 1000 µM: 24%
  IC50: 36 µM
[4]
  viability at 0.101 µM: 100%
  viability at 0.318 µM: 98%
  viability at 1 µM: 101%
  viability at 3 µM: 97%
  viability at 10 µM: 93%
  viability at 32 µM: 29%
  viability at 100 µM: 2%
  viability at 316 µM: 6%
  viability at 1000 µM: 1%
  IC50: 23.8 µM
[5]
  viability at 0.101 µM: 96%
  viability at 0.318 µM: 98%
  viability at 1 µM: 100%
  viability at 3 µM: 100%
  viability at 10 µM: 101%
  viability at 32 µM: 84%
  viability at 100 µM: 37%
  viability at 316 µM: 13%
  viability at 1000 µM: 10%
  IC50: 74.2 µM
[6]
  viability at 0.101 µM: 100%
  viability at 0.318 µM: 99%
  viability at 1 µM: 100%
  viability at 3 µM: 102%
  viability at 10 µM: 96%
  viability at 32 µM: 74%
  viability at 100 µM: 52%
  viability at 316 µM: 23%
  viability at 1000 µM: 23%
[6]; Table 8.1
  IC50: 93.5 µM
[7]
  viability at 0.101 µM: 101%
  viability at 0.318 µM: 99%
  viability at 1 µM: 102%
  viability at 3 µM: 101%
  viability at 10 µM: 99%
  viability at 32 µM: 61%
  viability at 100 µM: 39%
  viability at 316 µM: 20%
  viability at 1000 µM: 4%
  IC50: 71.8 µM
[8]
  viability at 0.101 µM: 99%
  viability at 0.318 µM: 100%
  viability at 1 µM: 103%
  viability at 3 µM: 106%
  viability at 10 µM: 106%
  viability at 32 µM: 77%
  viability at 100 µM: 29%
  viability at 316 µM: 8%
  viability at 1000 µM: 3%
[8]; Table 10.1
  IC50: 68.2 µM
